Experimental data published in publication PMC10914734 (Signal Transduction and Targeted Therapy, 2024).

Assays:
[1] = target: Human TMPRSS2 (Homo sapiens, UniProt O15393); assay: Protease panel, TMPRSS2 inhibition; format: biochemical; settings: at a concentration of 10 μM
Experimental: Enzymatic activity and inhibition assays of both compounds against the remaining proteases in Supplementary Table S2 were measured by a commercial company.

[2] = tested on: C57BL/6 mice; assay: In vivo acute toxicity study in mice; settings: oral, 1000 mg/kg/day and 2000 mg/kg/day
Experimental: C57BL/6 mice (aged 6–8 weeks, 16–25 g) consisting of half male and half female were used to assess toxicity of compounds 14a and 14b in vivo. Compounds, vehicle, dosage, and administration schemes are shown in Supplementary Table S6. In short, mice were treated with compounds 14a and 14b at the indicated doses by oral gavage and the mice were clinically observed for 12 days after administration, including body weights, food consumption, and general status. At the end of the studies, the mice were anesthetized by Zoletil 50, and the organ and tissue samples were observed by naked eyes.

[3] = Pharmacokinetics in mice; format: in vivo; settings: 14b; for MRT inf: read-out: MRTINF_obs; for AUC(0-inf): read-out: AUCINF_obs
[4] = tested on: SARS-CoV-2 PsV; format: cell-based; settings: 500 nM
[5] = tested on: LPS-induced expression of proinflammatory cytokines (IL-1β, IL-6) and chemokines (CCL3, CXCL10) in Raw 264.7 mouse macrophages; assay: Anti-inflammatory assay in LPS-stimulated Raw 264.7 cells (RT-qPCR); format: cell-based; settings: LPS 200 ng/mL 6 h, dose-dependent
Experimental: Mouse macrophage Raw 264.7 cells were incubated with compounds 14a or 14b at different doses for 2 h. Then, the cells were stimulated with LPS (200 ng/mL) for 6 h, followed by RT-qPCR analysis.
RNA isolation, cDNA synthesis, and RT-qPCR. Total RNA was isolated from cells using RNA extraction reagent (Vazyme, R401-01). cDNA was synthesized using the HiScript IIQ RT SuperMix (Vazyme, R223-01), according to manufacturer’s instructions. RT-qPCR was performed using ChamQ SYBR qPCR Master Mix (Vazyme, Q331-02) in a CFX96TM Real-Time PCR Detection System (Bio-Rad, Shanghai, China). The profile of thermal cycling consisted of initial denaturation at 95 °C for 30 s, 40 cycles at 95 °C for 5 s and 60 °C for 30 s. All primer sequences used in this study are listed in Supplementary Table S5.

[6] = target: SARS-CoV-2 M^pro (Severe acute respiratory syndrome coronavirus 2, UniProt P0DTD1); assay: biochemical
[7] = tested on: HCoV-229E PsV; assay: microbe, parasite or virus in culture; format: cell-based; settings: Human coronavirus 229E, Huh-7, read-out: EC50, HCoV-229E PsV
[8] = tested on: HCoV-OC43; assay: microbe, parasite or virus in culture; format: cell-based; settings: Betacoronavirus 1, OC43, RD, read-out: EC50, authentic HCoV-OC43
[9] = Pharmacokinetics in dogs; format: in vivo; settings: for AUC(0-inf): read-out: AUCINF_obs; for MRT inf: read-out: MRTINF_obs
Experimental: Three groups of male Beagle dogs weighing 9 to 12 kg (2 animals per group) were intravenously (1 mg/kg), subcutaneously (1 mg/kg) and orally (5 mg/kg) dosed 14a in a vehicle consisting of 5% dimethyl sulfoxide, 7.5% Kolliphor HS 15 and 87.5% saline (volume ratio). Serial blood samples were collected at 0.083, 0.25, 0.75, 2.0, 4.0, 6.0, 8.0 and 24.0 h for the intravenous and […] groups and 0.25, 0.5, 1.0, 2.0, 4.0, 6.0, 8.0 and 24.0 h for the oral group after dose administration. Two groups of male Beagle dogs weighing 9 to 12 kg (3 animals per group) were intravenously (1 mg/kg) and subcutaneously (1 mg/kg) dosed 14b in a vehicle consisting of 5% dimethyl sulfoxide, 5% ethanol, 40% polyethylene glycol 400 and 50% saline (volume ratio). Serial blood samples were collected at 0.083, 0.25, 0.50, 1.00, 2.00, 4.00, 8.00 and 24.0 h after dose administration. A group of 3 male Beagle dogs weighing 9 to 12 kg was administered an oral dose of 5 mg/kg 14b in a vehicle consisting of 5% dimethyl sulfoxide and 95% hydroxypropyl methyl cellulose solution (0.5% hydroxypropyl methyl cellulose in deionized water in weight ratio) (volume ratio). Serial blood samples were collected at 0.25, 0.50, 1.00, 2.00, 4.00, 8.00 and 24.0 h after dose administration. All blood samples were obtained by centrifugation and stored at -20 °C until analysis.
Plasma compound concentrations were obtained through HPLC-MS/MS, and the pharmacokinetics parameters were analyzed by Phoenix WinNonlin 7.0. The following parameters were determined: Cmax (maximal concentration of drug in plasma), AUClast or AUCINF_obs (area under the concentration curve from the time of dosing to the last measurable concentration or from the time of dosing to infinity, respectively). Tmax (time of maximum observed concentration), T1/2 (half-life of elimination), MRTINF_obs (mean residence time extrapolated to infinity for a substance administered by indicated dosing using observed last concentration), CL (total body clearance), Vss (volume of distribution at steady state) and F (absolute bioavailability, F = (AUCx × Di.v.)/( AUCi.v. × Dx) × 100%, where x is i.p., s.c. or p.o., and AUC is AUCINF_obs).The pharmacokinetic parameters were analyzed by Phoenix WinNonlin 7.0.

[10] = CD-1, mouse, plasma, po, p.o. (20 mg/kg)
[11] = male, CD-1, mouse, plasma, ip, i.p. (20 mg/kg)
[12] = male, CD-1, mouse, plasma, iv, i.v. (10 mg/kg)
[13] = male, Beagle, dog, plasma, iv, i.v. (1 mg/kg)
[14] = male, Beagle, dog, plasma, po, p.o. (5 mg/kg)
[15] = male, Beagle, dog, plasma, sc, s.c. (1 mg/kg)

Human TMPRSS2, sequence (O15393 whole entry): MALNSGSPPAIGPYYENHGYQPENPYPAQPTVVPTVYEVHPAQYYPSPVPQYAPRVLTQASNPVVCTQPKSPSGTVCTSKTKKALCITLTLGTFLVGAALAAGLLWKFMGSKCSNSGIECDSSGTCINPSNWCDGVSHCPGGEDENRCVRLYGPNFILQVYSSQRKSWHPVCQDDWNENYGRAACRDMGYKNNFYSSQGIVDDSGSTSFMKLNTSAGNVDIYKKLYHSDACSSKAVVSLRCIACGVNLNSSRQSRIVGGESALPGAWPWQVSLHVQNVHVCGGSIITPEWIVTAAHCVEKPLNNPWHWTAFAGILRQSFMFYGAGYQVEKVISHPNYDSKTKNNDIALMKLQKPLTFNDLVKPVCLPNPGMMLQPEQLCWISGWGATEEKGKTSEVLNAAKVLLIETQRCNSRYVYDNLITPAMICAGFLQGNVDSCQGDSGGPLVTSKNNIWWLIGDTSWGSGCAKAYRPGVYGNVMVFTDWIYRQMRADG

O=C(NCc1ccccc1)C(=O)[C@H](C[C@@H]1CCCNC1=O)NC(=O)[C@H](CC1CCCCC1)NC(=O)c1cc2ccccc2o1 [14b, N-((S)-1-(((S)-4-(benzylamino)-3,4-dioxo-1-((S)-2-oxopiperidin-3-yl)butan-2-yl)amino)-3-cyclohexyl-1-oxopropan-2-yl)benzofuran-2-carboxamide]
Inhibitory activity against TMPRSS2 (in words) [1]: did not exhibit inhibitory activity | inhibition at 10 µM ([1]; read-out: Inhibition rate, Human TMPRSS2): 3 ± 1% | Acute toxicity study, abnormalities in body weights, food mean daily consumption and general status [2]: No abnormalities | Acute toxicity study, mortality [2]: No mice died | Acute toxicity study, organs and tissues damage ([2]; at the end of observation): No obvious organs and tissues damage | Acute toxicity study, overall result ([2]; twice daily, observed 12 days): No obvious toxicity | Vss_obs ([3]; i.v. (10 mg/kg)): 6.419 ± 2.698 L/kg | AUC(0-t) [3, 10]: 463 ± 225 ng·h/mL | Cmax [3, 10]: 290 ± 189 ng/mL | Tmax [3, 10]: 0.25 h | bioavailability [3, 10]: 8% | half-life [3, 10]: 1.32 ± 0.77 h | MRT inf [3, 10]: 2.11 ± 0.87 h | AUC(0-t) [3, 11]: 7300 ± 782 ng·h/mL | Cmax [3, 11]: 3270 ± 374 ng/mL | Tmax [3, 11]: 0.18 ± 0.12 h | bioavailability [3, 11]: 128% | half-life [3, 11]: 5.77 h | AUC(0-inf) [3, 11]: 7640 ng·h/mL | MRT inf [3, 11]: 5.34 ± 1.81 h | AUC(0-t) [3, 12]: 2900 ± 1020 ng·h/mL | clearance [3, 12]: 62.5 ± 27.4 mL/min/kg | half-life [3, 12]: 3.34 ± 2.38 h | AUC(0-inf) [3, 12]: 2980 ng·h/mL | MRT inf [3, 12]: 1.88 ± 1.08 h | AUC(0-inf) ([3]; male, CD-1, mouse, plasma, po, p.o. (20 mg/kg)): 488 ng·h/mL | Antiviral activity by time of addition [4]: lost most of their antiviral activity | LPS-induced expression of proinflammatory cytokines (IL-1β, IL-6) and chemokines (CCL3, CXCL10) [5]: significantly inhibited | IC50 [6]: 990 nM | EC50 [7]: 13.1 ± 6.26 nM | EC50 [8]: 1310 ± 320 nM | Vss_obs ([9]; i.v. (1 mg/kg)): 1.59 ± 0.557 L/kg | AUC(0-t) [9, 13]: 544 ± 148 ng·h/mL | clearance [9, 13]: 31.9 ± 7.8 mL/min/kg | half-life [9, 13]: 1.07 ± 0.29 h | AUC(0-inf) [9, 13]: 546 ± 148 ng·h/mL | MRT inf [9, 13]: 0.82 ± 0.11 h | AUC(0-t) [9, 14]: 271 ± 166 ng·h/mL | Cmax [9, 14]: 235 ± 173 ng/mL | Tmax [9, 14]: 0.58 ± 0.38 h | bioavailability [9, 14]: 10% | half-life [9, 14]: 2 ± 0.85 h | AUC(0-inf) [9, 14]: 283 ng·h/mL | MRT inf [9, 14]: 2.19 ± 0.86 h | AUC(0-t) [9, 15]: 948 ± 46 ng·h/mL | Cmax [9, 15]: 151 ± 36 ng/mL | Tmax [9, 15]: 2.08 ± 1.88 h | bioavailability [9, 15]: 178% | half-life [9, 15]: 3.19 ± 1.57 h | AUC(0-inf) [9, 15]: 973 ± 54 ng·h/mL | MRT inf [9, 15]: 4.69 ± 1.25 h
